Source: patent US12233073B2, “Skin care formulations and skin cancer treatment” (Regents of the University of Minnesota, priority 2017, dated 2025)
Where “and” joins values, the source holds several entries; their conditions need not be identical. Equal values may be shown once. Read-outs that look alike come from different tables or passages of the source.

Experiment: Pharmacokinetics: plasma levels after topical RB cream
Assay type: in vivo, SKH1-Hrhr hairless mice
Details: for ng/ml RB (plasma, single mouse): listed as RB; for concentration at 24 h: 24 h post-dose
Experimental: To assess pharmacokinetics, RB cream (1.0 mg RB in 100 μl cream) was topically applied to the dorsum of SKH1-Hrhr hairless mice (Charles River), and plasma sample were taken at 0, 0.25, 0.5, 1, 2, 6, 24 and 48 hours post-dose (3 mice/time point).

**Q.** With `C=CC[N+]1([C@H]2C[C@H]3[C@@H]4CC[C@H]5C[C@H](O)[C@@H](N6CCOCC6)C[C@]5(C)[C@H]4CC[C@]3(C)[C@H]2OC(C)=O)CCCC1` [rocuronium bromide] as the compound, how does the “time of peak plasma levels post application” value (1.0 mg RB in 100 μl cream topically) read?
**A.** ≤ 15 min

**Q.** What about the “ng/ml RB (plasma, single mouse)” value (0.25 h post-dose, 1.0 mg RB in 100 μl cream topically) of the same compound?
**A.** 3058 ng/mL and 18 ng/mL and 210 ng/mL

**Q.** And the “ng/ml RB (plasma, single mouse)” value (0.5 h post-dose, 1.0 mg RB in 100 μl cream topically)?
**A.** 123 ng/mL and 36 ng/mL and 73 ng/mL

**Q.** And the “ng/ml RB (plasma, single mouse)” value (1 h post-dose, 1.0 mg RB in 100 μl cream topically)?
**A.** 7 ng/mL and 25 ng/mL and 48 ng/mL

**Q.** What about the “ng/ml RB (plasma, single mouse)” value (2 h post-dose, 1.0 mg RB in 100 μl cream topically, BDL = below detection limit (~2 ng/ml)) of the same compound?
**A.** 15 ng/mL

**Q.** And the “ng/ml RB (plasma, single mouse)” value (6 h post-dose, 1.0 mg RB in 100 μl cream topically, BDL = below detection limit (~2 ng/ml))?
**A.** 8 ng/mL

**Q.** And the concentration at 0.25 h (SKH1-Hrhr hairless, mouse, plasma, topical, 1 mg, 0.25 h post-dose, 3 mice)?
**A.** 1100 ng/mL

**Q.** What about the concentration at 0.5 h (SKH1-Hrhr hairless, mouse, plasma, topical, 1 mg, 0.5 h post-dose, 3 mice) of the same compound?
**A.** 77.3 ng/mL

**Q.** And the concentration at 1 h (SKH1-Hrhr hairless, mouse, plasma, topical, 1 mg, 1 h post-dose, 3 mice)?
**A.** 26.7 ng/mL

**Q.** What about the concentration at 2 h (SKH1-Hrhr hairless, mouse, plasma, topical, 1 mg, 2 h post-dose, 1.0 mg RB in 100 μl cream topically, BDL = below detection limit (~2 ng/ml), read-out: ng/ml RB (plasma, single mouse)) of the same compound?
**A.** 11 ng/mL

**Q.** And the concentration at 2 h (SKH1-Hrhr hairless, mouse, plasma, topical, 1 mg, 2 h post-dose, 3 mice, read-out: MEAN ng/ml RB (plasma))?
**A.** 8.7 ng/mL

**Q.** What about the concentration at 6 h (SKH1-Hrhr hairless, mouse, plasma, topical, 1 mg, 6 h post-dose, 1.0 mg RB in 100 μl cream topically, BDL = below detection limit (~2 ng/ml), read-out: ng/ml RB (plasma, single mouse)) of the same compound?
**A.** 7 ng/mL

**Q.** And the concentration at 6 h (SKH1-Hrhr hairless, mouse, plasma, topical, 1 mg, 6 h post-dose, 3 mice, read-out: MEAN ng/ml RB (plasma))?
**A.** 5 ng/mL

**Q.** What about the concentration at 24 h (SKH1-Hrhr hairless, mouse, plasma, topical, 1 mg, 1.0 mg RB in 100 μl cream topically, BDL = below detection limit (~2 ng/ml), read-out: ng/ml RB (plasma, single mouse)) of the same compound?
**A.** 14 ng/mL

**Q.** And the concentration at 24 h (SKH1-Hrhr hairless, mouse, plasma, topical, 1 mg, 3 mice, read-out: MEAN ng/ml RB (plasma))?
**A.** 4.7 ng/mL

**Q.** And the “time at which RB in plasma approaches baseline levels for the assay” value (post-dose, 1.0 mg RB in 100 μl cream topically)?
**A.** approximately 6 hours
